Measurements reported in a melting point compilation (Tetko et al.; mined from patent text by program, amines drawn as free bases though some values may be those of a salt).

Row | Compound | melting point
1 | CC1(C)Cc2cc(Cl)ccc2C=[N+]1[O-] | 64.5 to 66.5 °C
2 | CC1(C)CC2(CC(C)(C)N1O)OC1(CCCCCCCCCCC1)NC2=O | 236 to 238 °C
3 | COC(=O)c1ccccc1S(=O)(=O)NC(=O)n1nc(SC)n(C)c1=O | 184 °C
4 | CN1C2CCC(NC(=O)c3n[nH]c4ccccc34)C1CC2 (stereo unspecified) | 222 to 224 °C
5 | Cc1c(C)c2c(c(C)c1NC(=O)c1cccs1)C(c1ccc(C(C)C)cc1)C(C)(C)O2 (stereo unspecified) | 222 to 224 °C
6 | CCCCCS(=O)(=O)NC(=O)/C=C/c1cc(C(C)C)nn1Cc1ccc(Cl)cc1Cl | 149 to 151 °C
7 | CCC12CCC3C4CCC(=O)C=C4CCC3C1CCC2(O)C(C)O (stereo unspecified) | 159 to 164 °C
8 | CCOC(=O)c1cc2c(-c3ccc(C(F)(F)F)n(C)c3=O)c(F)cc(Cl)c2o1 | 118 to 120 °C
9 | COc1ccc(COC(=O)C2N=CSCC2(C)O)cc1 (stereo unspecified) | 102 to 103 °C
10 | CC(C)N=C(N)Nc1ccnc(OCCCO)n1 | 181 to 183 °C
11 | N=C(Nc1ccccc1C(F)(F)F)NC12CC3CC(CC(C3)C1)C2 | 259 to 260 °C
12 | CCCn1c(N)c(N=O)c(=O)n(CC2CCCCC2)c1=O | 225 to 226 °C
13 | CCc1cc2cc(CC(=O)O)c(Cl)c(Cl)c2s1 | 179 to 181 °C
14 | COc1cc(OC)c(C)c(C(=O)NCC23CC4CC(CC(C4)C2)C3)c1 | 173 to 175 °C
15 | CCCCCCCCCCCCc1c(C)[nH]c(C(=O)OCC)c1C | 65 to 67 °C
16 | CO[C@H]1CC[C@H]([C@H]2CC[C@H](CCC3OCCO3)CC2)CC1 | 74 °C
17 | COc1nnc(N)c(=O)n1C | 198 to 199 °C
18 | CCCCCCCCCC(=O)c1cc(OC)c(Cl)cc1OC | 53 to 54 °C
19 | CCOC(=O)c1sc(SC)c2c1CCC(C(OCC)OCC)C2=O (stereo unspecified) | 113 to 114 °C

Row | Compound | melting point
20 | COCc1cc(Cl)cc2c1OC(C(F)(F)F)C(C(=O)O)=C2 (stereo unspecified) | 167 to 168 °C
21 | CC(C)c1cc(C(=O)Nc2ccc(C(=O)O)nc2)sc1C(C)C | 216 to 217 °C
22 | CCCCOC1c2ccccc2C(=O)N(CC(C)C)C1(/C=C/C(N)=O)CNC(=O)OC(C)(C)C (stereo unspecified) | 149 to 150 °C
23 | COC(=O)CCNC(=O)c1ccc2c(c1)nc(-c1ccc(C(=N)N)cc1)n2CCC(c1ccccc1)c1ccccc1 | > 200 °C
24 | CCn1ncc2c3noc(-c4cccc(C)c4)c3cnc21 | 178 to 179 °C
25 | COC(C)C#Cc1ncn2c1CN(C)C(=O)c1c(Cl)cccc1-2 (stereo unspecified) | 139 to 141 °C
26 | CCN(C(=O)C(C)(C)C)c1cccc(-c2ccc3nnc(C)n3n2)c1 | 168 to 170 °C
27 | CC(C)(C)C(=O)c1ccc(C(=O)NC(=O)c2ccc(F)cc2)cc1 | 100 to 101 °C
28 | CC1(C)CN=C2N(C1)c1ccc(C#N)cc1C21OCCCO1 | 178 to 184 °C
29 | COC(C)c1cc(S(N)(=O)=S)sc1C (stereo unspecified) | 86 to 94 °C
30 | CCOc1nc(OCC)nc(-n2nc(SC)nc2N)n1 | 201 °C
31 | NCCNC(=S)Nc1c(Cl)cccc1Cl | 136 to 138 °C
32 | O=S(=O)(c1cc(Br)c(-c2ccc(Cl)cc2)[nH]1)C(F)(F)F | 155 to 159 °C
33 | CCCc1c(OCCCC#CC(=O)O)ccc(C(C)=O)c1O | 115 to 116 °C
34 | O=C(O)CCCCC(=O)Nc1ccc(C(=O)NN=C2C(=O)Nc3ccc(I)cc32)cc1 | 286 °C
35 | CN(C)CCC(c1ccccc1)c1ncc[nH]1 (stereo unspecified) | 135 to 136 °C
36 | COC(=O)c1cc(OCc2c(C)cccc2C)c2nc(C)n(C)c2c1 | 165 to 169 °C
37 | CC(C)(c1ccc(Oc2ccc([N+](=O)[O-])cc2C(F)(F)F)cc1)c1cccc(C(C)(C)c2ccc(Oc3ccc([N+](=O)[O-])cc3C(F)(F)F)cc2)c1 | 127 to 128 °C
38 | CCCCCCCCOc1ccc(-c2cnc(-c3ccc(OCc4ccccc4)c(F)c3F)nc2)cn1 | 120 °C

Row | Compound | melting point
39 | N#CCc1ccc(C2CCCCC2)cc1 | 48 to 49 °C
40 | Cc1cccc2c1NC(=O)C2 | 206 to 207 °C
41 | CSc1c(N)cnc2ccccc12 | 96 to 98 °C
42 | COC(=O)COc1cccc2c1CCCC2=O | 82 to 83 °C
43 | COc1ccc(CNc2cc[nH]n2)cc1OC1CCCC1 | 106 to 110 °C
44 | CCOC(=O)C1Cc2c(OC)ccc(OC)c2CO1 (stereo unspecified) | 59.8 °C
45 | Cc1ccccc1CNc1ncnc2c1ncn2C1OC(CO)C(O)C1O (stereo unspecified) | 162 to 164 °C
46 | c1cn2nc(N3CCNCC3)ccc2n1 | 122 to 123 °C
47 | O=C1COCCOCC(=O)NCCSCCSCCN1 | 145 °C
48 | CCOc1ccc2c(c1)C(C)(c1cc(C(=O)ON3C(=O)CCC3=O)ccc1Cl)C(=O)N2S(=O)(=O)c1ccc(C(=O)NC(C)(C)C)cc1 (stereo unspecified) | 168 °C
49 | O=C(NS(=O)(=O)C=Cc1ccc([N+](=O)[O-])cc1)c1ccccc1 | 192 to 195 °C
50 | CC(O)CNS(=O)(=O)c1ccc(Nc2nc(OCC3CCCCC3)c3nc[nH]c3n2)cc1 (stereo unspecified) | 236 to 238 °C
51 | CC(C)(C)OC(=O)NC(CC(=O)NC1CC1)C1CC1 (stereo unspecified) | 166 to 168 °C
52 | CN(C)CCCCc1ccc(CO)o1 | 24 °C
53 | CCCC1CCC(/C(F)=C(\F)c2ccc(OCC)c(F)c2F)CC1 (stereo unspecified) | 60 °C
54 | CON=C(C1=CN(C)CC=C1)C(F)(F)F | 140 to 143 °C
55 | NC(=O)c1c(Br)cc(Br)c(C(=O)O)c1Br | > 280 °C
56 | CCOC(=O)c1nnc2ccc(I)cc2c1O | 242 to 244 °C

Next, values leading:

Row | melting point | Compound
57 | 133 °C | CN1CCC(c2c[nH]c3ccc(C(=O)c4ccc(Cl)cc4)cc23)CC1
58 | 152 to 154 °C | CCOc1ccc(C2=NN(Cc3ccc(C(=O)O)cc3)C(=O)[C@H]3CCCC[C@@H]23)cc1OCC (relative stereo)
59 | 193 to 196 °C | c1ccc(NC2CCc3ccccc3C2)cc1 (stereo unspecified)
60 | > 300 °C | O=C1CN2Cc3c(ccc(Cl)c3Cl)N=C2N1
61 | 107 to 108 °C | O=C(CCCN1CCC(c2ccccc2)(c2ccccc2)CC1)c1ccc(F)cc1
62 | 154 to 155 °C | O=C1C(=Cc2ccccc2N2CCNCC2)SCCN1c1ccc(Cl)c(Cl)c1
63 | 86 to 87 °C | Cc1ccc(-c2ccc3c(c2)C(=O)CCC3)cc1
64 | 153 to 156 °C | CS(=O)(=O)c1ccc(-n2nc(CNC(=O)Nc3ccc(OC(F)(F)F)cc3)cc2-c2ccccc2)cc1
65 | 63.6 to 64.4 °C | CCOC(=O)c1cc(-c2ccc(OC)cc2)nn(CC2CCCC2)c1=O
66 | 126 °C | C[Si](C)(C)CC1=C[C@@H](c2ccccc2)[C@H]2C(=O)OC(=O)[C@H]2C1 (racemic)
67 | 127 to 129 °C | CN1C(=O)N(c2ccc(Cl)cc2)S(=O)(=O)c2ccc(OCC3CCCCC3)cc21
68 | 156 to 158 °C | CN1C(=O)[C@@H](NC(=O)CCC2CCCCC2)C[C@@H](c2ccccc2)c2ccccc21 (relative stereo)
69 | 230 to 235 °C | COC(=O)NC1CCC(Nc2ncc3ncnc(Nc4ccc(F)c(Cl)c4)c3n2)CC1 (stereo unspecified)
70 | 251 to 252 °C | COc1c(O)nc(-c2ccc(OCc3ccccc3)cc2)nc1O
71 | 104 to 106 °C | CCOC(=O)c1cc(=O)cc(-c2ccccc2Cl)o1
72 | > 275 °C | O=S(=O)(O)c1cccc(NCc2ccc(Cl)c(Cl)c2)c1
73 | 288 to 290 °C | O=C1NC(=O)c2c1c(-c1ccccc1)cc1oc3ccc(O)cc3c21
74 | 173 to 175 °C | c1ccc2nc(COc3ccc(Cc4nnn[nH]4)cc3)ccc2c1
75 | 152 to 154 °C | COc1ccc(NS(=O)(=O)N2CCn3c(c(C(N)=O)c(Cl)c3-c3ccccc3)C2)cc1
76 | 108 to 109 °C | N#CN1c2ccccc2C=Cc2ccccc21
77 | 76 °C | CC(C)(C)OC(=O)NC1Cc2ccccc2CC1=O (single isomer, unassigned; (+))
78 | 260 to 265 °C | CCOc1ccc2nc3ccc(C(=O)O)cn3c(=O)c2c1
79 | 173 to 174 °C | CC(=O)Nc1ccc(C(O)C2CCN(CCc3ccccc3)CC2)cc1 (stereo unspecified)

Row | melting point | Compound
80 | 85 to 87 °C | CCOC(=O)c1ccc2c(c1)C(=C1CCN(C)CC1)c1ccccc1CC2
81 | 243 to 244 °C | CCN1c2ncc(CCc3ccnc(O)c3)cc2C(=O)N(C)c2ccc(Cl)nc21
82 | < 50 °C | Clc1ccc(OCc2ccccc2)cn1
83 | 84 to 90 °C | CON1C(C)(C)CC(OC(=O)c2ccc3nn(-c4cc(C(C)(C)CC(C)(C)C)cc(C(C)(C)c5ccccc5)c4O)nc3c2)CC1(C)C
84 | 188 to 190 °C | CCOC(=O)N(c1ccccc1-n1nc(C(=O)O)nc1CCl)c1cccc(C)c1C
85 | 197 °C | O=C1Nc2ccc(Cl)cc2C1(O)c1ccccc1OCc1ccccc1 (stereo unspecified)
86 | 98 to 100 °C | CCOC(=O)c1sc2cc(OCc3ccccc3)ccc2c1Cl
87 | 109 °C | Brc1cc(-c2ccccc2)cc(-c2ccccc2)c1
88 | 157 to 161 °C | COC(=O)CCc1cc2cc(Cl)ccc2n1S(=O)(=O)c1cccc2cccnc12
89 | 256 to 257 °C | CC(C)n1nc(-c2ccc(O)cc2)c2sccc2c1=O
90 | 212 to 214 °C | Nc1cccc(-c2ccc(CCN3CCN(c4nnnn4-c4ccccc4)CC3)cc2)n1
91 | 158 to 160 °C | COc1ccc2[nH]c(S(=O)Cc3ncc(F)c(N4CCOCC4)c3C)nc2c1 (stereo unspecified)
92 | 103 to 104 °C | Cc1cccc(Sc2ccc3c(c2)CCC2N(C)C(=O)CCC32C)c1 (single isomer, unassigned; (+))
93 | 146 to 147 °C | COc1ccc(-c2ccc(C#N)cc2)cc1C=O
94 | 306 to 309 °C | Cc1ncn(-c2cc(C)c3[nH]c(=O)ccc3c2)c1[N+](=O)[O-]
95 | 80 to 82 °C | C=CCOc1ccc2oc(C(=O)c3ccc(F)cc3)c(C)c2c1
96 | 159 °C | Oc1ccc2c(c1)CCCC(c1ccccc1)=C2c1ccc(OCCCCCSCc2ccccn2)cc1
97 | 106 to 108 °C | C=CCO/N=C(/C(=O)O)c1ccc(OCCOc2ccc3ccccc3c2)s1
98 | 175 to 176 °C | O=C(O)/C=C\C=C(c1ccccc1)c1ccccc1
99 | 214 to 215 °C | O=C(Nc1noc2ccccc12)N1CCN(c2nc(N3CCCCC3)ns2)CC1
100 | 119 to 124 °C | COc1ccccc1-c1ccc(C(=O)N2Cc3ccc(C(=O)NCc4cccnc4)n3Cc3ccccc32)cc1C
101 | 169 °C | CCC(=S)NC[C@H]1CN(c2ccc(N3CCN(C(=O)CCC(=O)c4ccc(CN(C)C)cc4)CC3)c(F)c2)C(=O)O1
